Drawing on patent publication US20260209180A1, “PROTEASE INHIBITORS FOR TREATING OR PREVENTING CORONAVIRUS INFECTION” (Merck Sharp & Dohme LLC, priority 2023, published 2026), this text covers IC50 for 29 molecules.

The experiment deals with SARS2 coronavirus 3CL protease (Severe acute respiratory syndrome coronavirus 2, UniProt P0DTD1). In words: SARS2 Coronavirus 3CL Protease Assay (FRET). It is filed as biochemical. Conditions: 5 nM protease pre-incubated with compound 30 minutes; 15 uM peptide substrate; 4 h room temperature; read-out: FRET Potency (nM); IC50 values in the SARS2 3CLPro FRET assay. As for the experimental part: The enzymatic activity of SARS2 coronavirus 3CL protease was determined in a FRET (fluorescence resonance energy transfer)-based assay measuring the cleavage of a peptide substrate by recombinantly expressed and purified enzyme. Cleavage of the peptide SEQ ID NO: 1 (CPC Scientific) by SARS2 3CL protease was measured in reaction buffer (50 mM Hepes pH 7.5, 0.01% Triton X-100, 0.01% BSA, 2 mM DTT). […] Room temperature reactions (4 h) were quenched by addition of a high dose of inhibitor and read on an appropriate plate reader (excitation wavelength=495 nm, emission wavelength=520 nm). Data were analyzed by a standard 4 parameter fit to determine IC50 values.
Consider `CC(F)(F)CC[C@H](NC(=O)c1cc(Cl)cnc1NC(=O)C1(C(F)(F)F)CC1)C(=O)C(=O)NC1CC1` [Example 44, 5-chloro-N-[(1S)-1-[2-(cyclopropylamino)-2-oxo-acetyl]-4,4-difluoro-pentyl]-2-[[1-(trifluoromethyl)cyclopropane-carbonyl]amino]pyridine-3-carboxamide], for which the IC50 is 50.4 nM.
For `CC(F)(F)CC[C@H](NC(=O)c1cc(C(F)(F)F)cnc1NC(=O)c1cccc(C(F)(F)F)c1)C(=O)C(=O)NC1CC1` [Example 39, N-[(1S)-1-[2-(cyclopropylamino)-2-oxo-acetyl]-4,4-difluoro-pentyl]-5-(trifluoromethyl)-2-[[3-(trifluoromethyl)benzoyl]amino]pyridine-3-carboxamide], the IC50 amounted to 40.9 nM.
Consider `CNC(=O)C(=O)[C@H](CCC(C)(F)F)NC(=O)c1cc(Cl)ccc1NC(=O)C1CN(C)C1` [Example 50, N-[4-chloro-2-[[(1S)-4,4-difluoro-1-[2-(methylamino)-2-oxo-acetyl]pentyl]carbamoyl]phenyl]-1-methyl-azetidine-3-carboxamide], for which the IC50 amounted to 21.8 nM.
Take `CNC(=O)C(=O)[C@H](CCC(C)(F)F)NC(=O)c1cc(F)cnc1NC(=O)C(C)(C)C` [Example 43, N-[(1S)-4,4-difluoro-1-[2-(methylamino)-2-oxo-acetyl]pentyl]-2-(2,2-dimethylpropanoylamino)-5-fluoro-pyridine-3-carboxamide]: the IC50 was determined as 49.6 nM.
As for `CC(F)(F)CC[C@H](NC(=O)c1cc(Cl)ccc1NC(=O)c1ccnc(C(F)(F)F)c1)C(=O)C(N)=O` [Example 7, (S)—N-(2-((1-amino-6,6-difluoro-1_2-dioxoheptan-3-yl)carbamoyl)-4-chlorophenyl)-2-(trifluoromethyl)isonicotinamide], the IC50 was determined as 18 nM.
The result for `CNC(=O)C(=O)[C@H](CCC(C)(F)F)NC(=O)c1cc(Cl)ccc1NC(=O)OC` [Example 49, methyl N-[4-chloro-2-[[(1S)-4,4-difluoro-1-[2-(methylamino)-2-oxo-acetyl]pentyl]carbamoyl]phenyl]carbamate] reads 7.1 nM; that for `CNC(=O)C(=O)[C@H](CCC(C)(F)F)NC(=O)c1cc(F)cnc1NC(=O)c1cccc(F)c1` [Example 34, N-[(1S)-4,4-difluoro-1-[2-(methylamino)-2-oxo-acetyl]pentyl]-5-fluoro-2-[(3-fluorobenzoyl)amino]pyridine-3-carboxamide], 23.8 nM.
The result for `CNC(=O)C(=O)[C@H](CCC(C)(F)F)NC(=O)c1cc(Cl)ccc1NC(=O)C1CC1C(F)(F)F` (stereo partly drawn) [Example 32, 5-chloro-N-[(1S)-4,4-difluoro-1-[2-(methylamino)-2-oxo-acetyl]pentyl]-2-[[2-(trifluoromethyl)cyclopropane-carbonyl]amino]benzamide] reads 21.3 nM; that for `CNC(=O)C(=O)[C@H](CCC(C)(F)F)NC(=O)c1cc(Cl)ccc1NC(=O)C1CC1C(F)(F)F` (stereo partly drawn) [Example 48, 5-chloro-N-[(1S)-4,4-difluoro-1-[2-(methylamino)-2-oxo-acetyl]pentyl]-2-[[2-(trifluoromethyl)cyclopropane-carbonyl]amino]benzamide], 11.3 nM.
For the molecule `CNC(=O)C(=O)[C@H](CCC(C)F)NC(=O)c1cc(Cl)ccc1NC(=O)OC` (single isomer, unassigned) [Example 6D], the IC50 came to 702 nM.
In the case of `CNC(=O)C(=O)[C@H](CCC(C)(F)F)NC(=O)c1cc(Cl)ccc1NC(=O)[C@H]1CC1(F)F` [Example 23, 5-chloro-2-[[(1R)-2,2-difluorocyclopropanecarbonyl]amino]-N-[(1S)-4,4-difluoro-1-[2-(methylamino)-2-oxo-acetyl]pentyl]benzamide], the IC50 is 13.2 nM.
With `CNC(=O)C(=O)[C@H](CCC(C)(F)F)NC(=O)c1cc(Cl)ccc1NC(=O)N(C)CC1CCC(F)(F)CC1` [Example 57, (S)-5-chloro-N-(6,6-difluoro-1-(methylamino)-1,2-dioxoheptan-3-yl)-2-(3-((4,4-difluorocyclohexyl)methyl)-3-methylureido)benzamide], the IC50 worked out at 6 nM.
Take `CNC(=O)C(=O)[C@H](CCC(C)(F)F)NC(=O)c1cc(Cl)ccc1NC(=O)[C@H](C)OC` [Example 60, 5-chloro-N-[(1S)-4,4-difluoro-1-[2-(methylamino)-2-oxo-acetyl]pentyl]-2-[[(2S)-2-methoxypropanoyl]amino] benzamide]: the IC50 came to 9.4 nM.
The result for `CNC(=O)C(=O)[C@H](CCC(C)(F)F)NC(=O)c1cc(Cl)c(F)cc1NC(=O)CCC(F)(F)F` [Example 4, (S)-5-chloro-N-(6,6-difluoro-1-(methylamino)-1,2-dioxoheptan-3-yl)-4-fluoro-2-(4,4,4-trifluorobutanamido)benzamide] reads 9.9 nM; that for `CNC(=O)C(=O)[C@H](CCC(C)(F)F)NC(=O)c1cc(Cl)cnc1NC(=O)OC` [Example 56, methyl N-[5-chloro-3-[[(1S)-4,4-difluoro-1-[2-(methylamino)-2-oxo-acetyl]pentyl]carbamoyl]-2-pyridyl]carbamate], 4.2 nM; that for `CC(F)(F)CC[C@H](NC(=O)c1cc(Cl)ccc1NC(=O)CCC(F)(F)F)C(=O)C(N)=O` [Example 53, 5-chloro-N-[(1S)-4,4-difluoro-1-oxamoyl-pentyl]-2-(4,4,4-trifluorobutanoylamino) benzamide], 97.5 nM.
As for `CNC(=O)C(=O)[C@H](CCC(C)(F)F)NC(=O)c1cc(Cl)ccc1NC(=O)C1CCc2scnc21` (stereo partly drawn) [Example 15, N-[4-chloro-2-[[(1S)-4,4-difluoro-1-[2-(methylamino)-2-oxo-acetyl]pentyl]carbamoyl]phenyl]-5,6-dihydro-4H-cyclopenta[d]thiazole-4-carboxamide], the IC50 amounted to 8.4 nM.
As to `CNC(=O)C(=O)[C@H](CCC(C)(F)F)NC(=O)c1cc(Cl)ccc1NC(=O)C1CC1C(F)(F)F` (stereo partly drawn) [Example 47, 5-chloro-N-[(1S)-4,4-difluoro-1-[2-(methylamino)-2-oxo-acetyl]pentyl]-2-[[2-(trifluoromethyl)cyclopropane-carbonyl]amino]benzamide], the IC50 was 20.5 nM.
On to `CNC(=O)C(=O)[C@H](CCC(C)(F)F)NC(=O)c1cc(Cl)ccc1NC(=O)C1CC12CCOCC2` (stereo partly drawn) [Example 11, N-[4-chloro-2-[[(1S)-4,4-difluoro-1-[2-(methylamino)-2-oxo-acetyl]pentyl]carbamoyl]phenyl]-6-oxaspiro[2.5]octane-2-carboxamide], for which the IC50 was 7.7 nM.
`CNC(=O)C(=O)[C@H](CCC(C)(F)F)NC(=O)c1cc(Cl)ccc1NC(=O)C(C)C` [Example 58, 5-chloro-N-[(1S)-4,4-difluoro-1-[2-(methylamino)-2-oxo-acetyl]pentyl]-2-(2-methylpropanoylamino) benzamide]: the IC50 was found to be 6.2 nM.
As for `CC(F)(F)CC[C@H](NC(=O)c1cc(Cl)cnc1NC(=O)C12CC(C(F)(F)F)(C1)C2)C(=O)C(=O)NC1CC1` [Example 27, 5-chloro-N-[(1S)-1-[2-(cyclopropylamino)-2-oxo-acetyl]-4,4-difluoro-pentyl]-2-[[3-(trifluoromethyl)bicyclo[1.1.1]pentane-1-carbonyl]amino]pyridine-3-carboxamide], the IC50 turned out to be 17.4 nM.
As to `CNC(=O)C(=O)[C@H](CCC(C)(F)F)NC(=O)c1cc(Cl)ccc1NC(=O)c1ccnc(C(F)(F)F)c1` [Example 1, (S)—N-(4-chloro-2-((6,6-difluoro-1-(methylamino)-1,2-dioxoheptan-3-yl)carbamoyl)phenyl)-2-(trifluoromethyl)isonicotinamide], the IC50 is 8.1 nM.
Under `CNC(=O)C(=O)[C@H](CCC(C)(F)F)NC(=O)c1cc(Cl)ccc1NC(=O)C(C)c1cscn1` (stereo partly drawn) [Example 10, 5-chloro-N-[(1S)-4,4-difluoro-1-[2-(methylamino)-2-oxo-acetyl]pentyl]-2-(2-thiazol-4-ylpropanoylamino)benzamide] stands 7 nM; under `CNC(=O)C(=O)[C@H](CCC(C)(F)F)NC(=O)c1cc(Cl)ccc1NC(=O)C1(C(F)(F)F)CC1` [Example 20, 5-chloro-N-[(1S)-4,4-difluoro-1-[2-(methylamino)-2-oxo-acetyl]pentyl]-2-[[1-(trifluoromethyl)cyclopropane-carbonyl]amino]benzamide], 11.6 nM.
As for `CNC(=O)C(=O)[C@H](CCC(C)(F)F)NC(=O)c1cc(Cl)ncc1NC(=O)OC` [Example 55, methyl N-[6-chloro-4-[[(1S)-4,4-difluoro-1-[2-(methylamino)-2-oxo-acetyl]pentyl]carbamoyl]-3-pyridyl]carbamate], the IC50 came out at 93.8 nM.
The result for `CNC(=O)C(=O)[C@H](CCC(C)(F)F)NC(=O)c1cc(F)cnc1NC(=O)c1cccc(C(F)(F)F)c1` [Example 18, N-[(1S)-4,4-difluoro-1-[2-(methylamino)-2-oxo-acetyl]pentyl]-5-fluoro-2-[[3-(trifluoromethyl)benzoyl]amino]pyridine-3-carboxamide] reads 9.8 nM; that for `CNC(=O)C(=O)[C@H](CCC(C)F)NC(=O)c1cc(Cl)ccc1NC(=O)OC` (single isomer, unassigned) [Example 6B], 154 nM.
Turning to `CNC(=O)C(=O)[C@H](CCC(C)(F)F)NC(=O)c1cc(Cl)ccc1NC(=O)C1CC12CC2` (single isomer, unassigned) [Example 19], the IC50 was 10.5 nM.
As for `CNC(=O)C(=O)[C@H](CCC(C)(F)F)NC(=O)c1cc(F)cnc1NC(=O)C1CC(F)(F)C1` [Example 28, 2-[(3,3-difluorocyclobutanecarbonyl)amino]-N-[(1S)-4,4-difluoro-1-[2-(methylamino)-2-oxo-acetyl]pentyl]-5-fluoro-pyridine-3-carboxamide], the IC50 amounted to 19.8 nM.
